The test system of one data set is hESCs. Nature of the data set: Continuous CHIR99021 treatment of hESCs (time course, qPCR and RNA-seq). The settings on record: continuous 10 μM treatment of hESCs, compared to transient activation for 24 hours. In kind it is cell-based, human. The method, then:
In time course experiments cells were dissociated using Accutase (Sigma) and seeded into 12-well plates at 2.5×10^5 cells per well in mTesR1 medium supplemented with 10 μM Y-27632 (R&D). 24 hours later medium was replaced with differentiation medium: RPMI-1640 with L-Glutamine and 1× B-27 supplement without insulin containing 10 μM CHIR99021 (Tocris). In case of beta-catenin overexpression, the procedure was the same, except that CHIR99021 was replaced with 1 μg/ml doxycycline (Clontech). All cell culture media components were from Life Technologies unless indicated otherwise.
Total RNA was isolated using RNeasy mini kit (Qiagen). cDNA was synthesized from 0.2-1 μg of total RNA (normalized amount between samples within each experiment) using Verso cDNA synthesis kit (Thermo Scientific) according to manufacturers instructions. […] Relative fold changes (FC) in gene expression were calculated using ΔΔCt method (Livak and Schmittgen, 2001). […]
3 μg of total RNA were treated with TURBO DNase (Life Technologies) and purified using RNeasy Minelute RNA cleanup kit (Qiagen). RNA quality was assessed using microcapillary electrophoresis on Agilent 2100 Bioanalyzer with RNA Pico 6000 kit (Agilent) and only RNA with RIN values >8 was processed further. […] The quality of the libraries was assessed using Agilent 2100 Bioanalyzer with the DNA 1000 kit (Agilent). […] Sequencing depth was 12-14 Mio reads per sample. […]

The next data set deals with H9 hESC line. In words: Axial stem cell derivation from hESCs by serial passaging in maintenance medium with ligands. In kind it is cell-based, human. Conditions: for derivation of stable lines on addition of the ligand: added to maintenance medium. Here is the method: (§1) Cells were seeded as described above and treated with 10 μM CHIR for 24 hours. Afterwards cells were split at 1:20-1:30 ratio into Matrigel-coated 6-well plates containing maintenance medium (RPMI-1640 supplemented with L-Glutamine, 1× non-essential amino acids, 1× B-27 supplement without vitamin A and the respective ligands (see Table 1) and the cultures were incubated until they became confluent. Confluent cultures were routinely split at 1:10-1:20 ratio until the end of establishment phase defined at passage 9. Splitting was done with either Passaging solution XF or Versene (Life Technologies). FGF2-containing medium was prepared freshly every week, the media without FGF2—at least every 2 weeks. No manual colony picking or scraping off the differentiated cells was employed at any stage during the establishment of cell lines.
Total RNA was isolated using RNeasy mini kit (Qiagen). cDNA was synthesized from 0.2-1 μg of total RNA (normalized amount between samples within each experiment) using Verso cDNA synthesis kit (Thermo Scientific) according to manufacturers instructions. 1 μl of cDNA (1:5 dilutions) were used as template in 10 μl qPCR reactions. PCR was set up using either pre-designed Taqman Gene Expression Assays together with Taqman Gene Expression Master Mix (both from Thermo Scientific) or custom-designed primers together with Power SYBR Green master mix (Thermo Scientific). All primer and Taqman probe details are listed in, e.g., Table 2. Primer concentration in the reactions was 250 nM for all primers. PCR was performed on QuantStudio 12K Flex Real-Time PCR System (Thermo Scientific) using pre-defined cycling parameters. 2 technical replicates were run for each reaction. Taqman assays and primers used are listed in, e.g., Table 2. GAPDH served as a housekeeping gene in all experiments. Relative fold changes (FC) in gene expression were calculated using ΔΔCt method (Livak and Schmittgen, 2001). Results are presented as mean ΔΔCt±standard error of the mean between biological replicates, unless indicated otherwise. Plots were produced using ggplot2 package (Wickham, 2009) in RStudio software running R version 3.5.1 (R Core Team, 2018).
For immunofluorescent analysis, cells were seeded onto either matrigel-coated glass coverslips or into matrigel-coated 4-well μ-slides (Ibidi). For IF on differentiated motor neurons, AxCS lines were differentiated directly on the coverslips. […] Primary antibody dilutions (e.g., Table 3) in the blocking buffer were added and incubated overnight at 4° C. Next day, cells were washed with PBS 3 times and incubated with secondary antibodies diluted in PBS for 1 hours at RT. Coverslips were mounted using ProLong Gold mounting reagent with DAPI. Images were obtained at 63× magnification using Zeiss Axio Observer.Z1 epifluorescent microscope equipped with Apotome.2 and Zen software (Zeiss).

Another data set has as its system human iPSC line HMGU #1. In words: Axial stem cell derivation from human iPS cell line. It is filed as cell-based. Conditions: 10 μM CHIR99021 with inhibition of TGF-β, human iPSCs. The method, then:
as §1, with “FIG. 6: A) Schematic of axial stem cell derivation from human iPS cell line (HMGU #1). μM concentrations refer to CHIR99021. […] B) Quantitative qPCR analysis of marker gene expression in iPS-derived axial stem cell lines at passage 9. Expression is normalized to GAPDH and plotted as log2 fold change over undifferentiated parental iPS cell line. Error bars represent standard error of the mean between biological replicates (derivations). n=1 to 6. Cells” for “Cells”

Consider `Cc1c[nH]c(-c2cnc(NCCNc3ccc(C#N)cn3)nc2-c2ccc(Cl)cc2Cl)n1` [CHIR99021], for which the TBXT expression entry in the data set with hESCs is given as “sustained high level of TBXT”. The “marker expression of derived cell lines” value in the data set with H9 hESC line (5 μM CHIR99021 alone) is “high levels of SOX2 in conjunction with PAX6, but no T, CDX2, MIXL1 or EOMES”; in the data set on H9 hESC line (5 μM CHIR99021 with FGF2), “high levels of SOX2, TBXT, CDX2, MIXL1, EOMES and very low level or no PAX6”; in the data set on H9 hESC line (7.5 μM CHIR99021) it was “intermediate levels of TXBT and PAX6”. Further, the toxicity to conversion result with H9 hESC line (10 μM CHIR99021, hESC) is listed as “toxic to hESC conversion”. The “derivation of cell lines” value is “enabled the derivation of lines that exhibited compact stem cell colony morphology” with H9 hESC line (5 or 7.5 μM CHIR99021, presence or absence of FGF2, hESCs) and “did not promote the formation of cell lines” in the data set with H9 hESC line (CHIR99021 lower than 5 μM). The “SOX2 expression of passaged progeny” value in the data set with H9 hESC line (passaging beginning at 24 hours, in presence of CHIR99021) is “stably expressing SOX2 at a comparable level to undifferentiated hESCs”. The “derivation of axial cell lines” value with human iPSC line HMGU #1 was “permissive for the derivation of SOX2/TXBT axial cell lines”.

Take `NC(=O)c1ccc(-c2nc(-c3ccc4c(c3)OCO4)c(-c3ccccn3)[nH]2)cc1` [SB-431542]: in the data set on H9 hESC line (TGF-β inhibition), the “spontaneous differentiation and colony compactness of the stem cell lines” value is “reduced spontaneous differentiation and maintained the lines as more compact colonies”. Also, in the data set with H9 hESC line (TGF-β inhibitor applied to maintenance medium), the “cell and colony morphology of derived lines” value is “created more compact cells and denser colonies”.

Regarding FGF2, the “sustained TBXT expression on passaging” value in the data set on H9 hESC line (passaging in presence of CHIR99021 with or without FGF2) is listed as “sustained expression required the presence of FGF2”.

For “TGF-β: Human recombinant TGF-β1 (Peprotech)”, the “derivation of stable lines on addition of the ligand” value with H9 hESC line is on record as “prohibited the deviation of stable lines altogether”.

B1: BMP4: Human recombinant BMP4 (R&D Systems) (protein, UniProt P12644 293-408, looked up)
Bone morphogenetic protein 4: SPKHHSQRARKKNKNCRRHSLYVDFSDVGWNDWIVAPPGYQAFYCHGDCPFPLADHLNSTNHAIVQTLVNSVNSSIPKACCVPTELSAISMLYLDEYDKVVLKNYQEMVVEGCGCR
Take B1: the “derivation of stable lines on addition of the ligand” value in the data set on H9 hESC line was “prohibited the deviation of stable lines altogether”.

The values are drawn from US20230203440A1, “AXIAL STEM CELLS, METHODS OF PRODUCING AND USES THEREOF” (HELMHOLTZ ZENTRUM MUNCHEN - DEUTSCHES FORSCHUNGSZENTRUM FUR …, priority 2020, published 2023).
